In PubChem BioAssay (NCI):
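Values below derive from 48-hour exposures of cells grown in 96-well plates, with endpoints linearly interpolated between the two concentrations bracketing the appropriate inhibition level. The concentration for 50% growth inhibition is given as GI50. Definition used: TGI = concentration required for complete inhibition of growth.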

Experiments:
Experiment in all cases: DTP human tumour cell line panel, 48 h
HOP-92 NSCLC = system: HOP-92 NSCLC
HL-60(TB) leukemia = system: HL-60(TB) leukemia
SW-620 colon = system: SW-620 colon
OVCAR-5 ovarian = system: OVCAR-5 ovarian
HOP-62 NSCLC = system: HOP-62 NSCLC
SF-295 CNS = system: SF-295 CNS
SNB-19 CNS = system: SNB-19 CNS
RXF 393 renal = system: RXF 393 renal
UO-31 renal = system: UO-31 renal
A498 renal = system: A498 renal

| SMILES | TGI (HOP-92 NSCLC) [µM] | TGI (HL-60(TB) leukemia) [µM] | TGI (SW-620 colon) [µM] | TGI (OVCAR-5 ovarian) [µM] | TGI (HOP-62 NSCLC) [µM] | TGI (SF-295 CNS) [µM] | TGI (SNB-19 CNS) [µM] | TGI (RXF 393 renal) [µM] | TGI (UO-31 renal) [µM] | TGI (A498 renal) [µM] | GI50 (HOP-92 NSCLC) [µM] | GI50 (HL-60(TB) leukemia) [µM] | GI50 (SW-620 colon) [µM] | GI50 (OVCAR-5 ovarian) [µM] | GI50 (HOP-62 NSCLC) [µM] | GI50 (SF-295 CNS) [µM] | GI50 (SNB-19 CNS) [µM] | GI50 (RXF 393 renal) [µM] | GI50 (UO-31 renal) [µM] | GI50 (A498 renal) [µM] |
| --- | --- | --- | --- | --- | --- | --- | --- | --- | --- | --- | --- | --- | --- | --- | --- | --- | --- | --- | --- | --- |
| C=CCSSCC=C | > 100 | 46 | > 100 | > 100 | > 100 | > 100 | > 100 | > 74 | > 100 | > 100 |  |  |  |  |  |  |  |  |  |  |
| COc1ccc(NC(=S)N/N=C(\C)c2nc3ncccc3[nH]2)cc1 | 37.7 | 65.8 | > 100 | > 100 | 59.3 | > 100 | > 100 |  | 12 | 98.2 |  |  |  |  |  |  |  |  |  |  |
| O=C1OC2CC=CC1C2 (stereo unspecified) | > 100 | > 100 | > 100 | > 100 | > 100 | > 100 | > 100 | > 100 | > 100 | > 100 |  |  |  |  |  |  |  |  |  |  |
| CC(C)(C)c1ccc(/C=N/NC(=O)CSCC(=O)N/N=C/c2ccc(C(C)(C)C)cc2)cc1 | 38.9 | 5.21 | 6.11 | 12.5 | 5.84 |  | 17.2 | 4.29 | 15.7 | 8.67 |  |  |  |  |  |  |  |  |  |  |
| O=C(COc1ccc(Cl)c(Cl)c1)N(Cc1ccccc1)Cc1ccc[n+](Cc2ccc(Cl)cc2S(=O)(=O)F)c1 | > 100 | 94.5 | > 100 | > 100 | > 100 | > 100 | > 100 | > 100 | > 100 | > 100 |  |  |  |  |  |  |  |  |  |  |
| O=C1CCCC2C3CC(CN12)C1CCCCN1C3 (stereo unspecified) | > 100 | > 100 | > 100 | > 100 | > 100 | > 100 | > 100 | > 100 | > 100 | > 100 |  |  |  |  |  |  |  |  |  |  |
| C=C1C(=O)OC2CC1CCC1(C)OC1CCC(C)=CCCC2(C)O (stereo unspecified) | 5.89 | 2.62 | 3.82 | 19.1 | 19.4 | 33.8 | 39.9 | 3.61 | 18.7 | 3.52 |  |  |  |  |  |  |  |  |  |  |
| CN1CC(CNC(=O)OCc2ccccc2)CC2c3cccc4c3c(cn4C)CC21 (stereo unspecified) | 5.95 | 3.85 | 3.12 | 4.91 | 2.98 | 4.76 | 3.99 | 3.2 | 4.22 | 16 | 1.72 | 1.91 | 1.59 | 1.98 | 1.52 | 2.09 | 1.8 | 1.74 | 1.24 | 3.47 |
| Cc1cc(C)nc(SCCc2cccc[n+]2C)n1 | > 100 | > 100 | > 100 | > 100 | > 100 | > 100 | > 100 | > 100 | > 100 | > 100 |  |  |  |  |  |  |  |  |  |  |
| CC(=O)NNC(=O)C1CCCCN1 (stereo unspecified) | > 100 | > 100 | > 100 | > 100 | > 100 | > 100 | > 100 | > 100 |  | > 100 |  |  |  |  |  |  |  |  |  |  |
| O=C1OCc2cc3cc4c(cc3c(-c3ccc5c(c3)OCO5)c21)OCO4 (tested in a mixture with another compound) | 43.5 | > 100 | > 100 | 96.8 | 34.9 | 31.4 | > 100 | 22.5 | 63.8 | > 100 |  |  |  |  |  |  |  |  |  |  |
| Cl/C(=C\C=Nc1ccc(I)cc1)c1ccc2ccccc2c1 | > 85 | 44.4 | 68.6 | > 64.6 | 40.7 | 51.3 | 39.7 | 61.8 | > 55.9 | > 90 |  |  |  |  |  |  |  |  |  |  |
| CC[C@]12C=CCN3CC[C@@]4(c5cc(Br)c(OC)cc5N(C)[C@H]4[C@@](O)(C(=O)N[C@@H](Cc4ccc(O)cc4)C(=O)OC)[C@@H]1O)[C@@H]32 |  | 57.8 | > 100 | > 100 | > 100 | 38.7 | > 100 | 38.4 | 98.6 | 40.8 |  |  |  |  |  |  |  |  |  |  |
| COc1c(OC/C=C(\C)CCC=C(C)C)ccc2ccc(=O)oc12 | > 100 | > 100 | > 100 | > 100 | > 100 | > 100 | > 100 |  | > 100 | > 100 |  |  |  |  |  |  |  |  |  |  |
| O=C(Nc1ccc(Cl)c(Cl)c1)N1N=C2c3ccccc3CCC2C1c1ccc(Cl)cc1 (stereo unspecified) | > 100 | > 100 | > 100 | > 100 | > 100 | > 100 | > 100 | > 100 | > 100 | > 100 |  |  |  |  |  |  |  |  |  |  |
| COc1cc(/C=C/C(=O)CC(=O)/C=C/c2ccc(O)c(OC)c2)ccc1O |  | 25 | 21.2 | 35.3 | 19.1 | 20.7 | 15.7 | 11.3 | 24.8 | 33.1 |  |  |  |  |  |  |  |  |  |  |
| Br/C(=N\Nc1nn[nH]n1)c1ccncc1 | > 100 | > 100 | > 100 | > 100 | > 100 | > 100 | > 100 | > 100 |  | > 100 |  |  |  |  |  |  |  |  |  |  |
| c1ccc(C[N+]23CN4CN(CN(C4)C2)C3)cc1 | 70.2 | 57.2 | 69.5 | > 100 | > 100 | > 100 | 71.2 | 36.8 | 43.7 | > 100 |  |  |  |  |  |  |  |  |  |  |
| C=CCNS(=O)(=O)c1ncnc2nc[nH]c12 | > 100 |  | > 100 | > 100 | > 100 | > 100 | > 100 | > 100 | > 100 | > 100 |  |  |  |  |  |  |  |  |  |  |
| COc1cc(S(=O)(=O)Nc2nc(-c3ccc(N4C(=O)/C(=C/c5ccccc5[N+](=O)[O-])N=C4c4ccccc4)cc3)cs2)ccc1Cl | > 100 | > 100 | > 100 | > 100 | > 100 | > 100 | > 100 | > 100 | > 100 | > 100 |  |  |  |  |  |  |  |  |  |  |
| SC1CCCN(Cc2ccccc2)C1 (stereo unspecified) | > 100 | > 100 | 72.6 | > 100 | > 100 | > 100 | > 100 | > 100 | > 100 | > 100 |  |  |  |  |  |  |  |  |  |  |
| Cn1c2c3ccc(Cl)cc3nc-2c(Cl)c2ccccc21 | 37.1 | > 100 | 63.1 | 38.6 | 45.3 | 36.6 | > 100 | 36.9 | 32.6 | 45.1 |  |  |  |  |  |  |  |  |  |  |
| CCCC(=O)O.CCCC(=O)O.CCCC(=O)O.CCCC(=O)O.[Rh].[Rh] | 0.476 | 0.351 | 0.0405 |  |  |  |  | 0.052 |  | 0.325 | 0.211 | 0.0448 | 0.0188 |  |  |  |  | 0.0224 |  | 0.151 |
| CC(C)(C)OC(=O)NC1CCC(C(C)(C)C)CC1 (stereo unspecified) |  | 36.1 | > 100 | > 100 | > 100 | > 55.3 | > 100 | > 92.2 | > 100 | > 100 |  |  |  |  |  |  |  |  |  |  |
| O=C(/C=C/c1ccccc1)N1CCCCC1 | > 100 | > 100 | > 100 | > 100 | > 100 | > 100 | > 100 | > 100 | > 100 | > 100 |  |  |  |  |  |  |  |  |  |  |
| O=C(Oc1ccc(Cl)cc1[N+](=O)[O-])c1ccccc1 | > 100 | > 100 | > 100 | > 100 | > 100 | > 100 | > 100 | > 100 | > 100 | > 100 |  |  |  |  |  |  |  |  |  |  |
